The text below walks through data of patent US6921667B2, “Methods for direct detection of individual methotrexate metabolites” (Prometheus Laboratories, Inc., priority 2003, dated 2005).

This series is described as follows: Red blood cell methotrexate polyglutamate concentrations in patients on low-dose methotrexate, by HPLC fluorometry with post-column photo-oxidation. Particulars: single patient on 17.5 mg weekly methotrexate for at least 3 months; FIG. 4A; packed red blood cells. Format: in vivo, human.

Procedure: The liquid chromatograph was an Agilent 1100 HPLC chemstation system composed of a quaternary pump, a system controller, an autoinjector, a sample cooler kept at 4° C., and a fluorometer. […] Methotrexate polyglutamates were detected with post-column derivatization using a photochemical reactor unit (Aura Industries; New York, N.Y.) equipped with an elongated 254 nm low pressure mercury ultraviolet lamp and containing a 1/16″ outer diameter TEFLON™ tubing (internal diameter 0.25 mm) assembled as a knitted coil and connected on-line between the analytical column and fluorometer. The knitted coil was extended lengthwise through the photochemical reactor unit; all but a portion of the elongated lamp was masked with foil such that only a segment of the knitted coil was irradiated. In particular, the lamp was masked such that only 1 meter of the coil was irradiated with the lamp, which at a flow rate of 1 ml/min corresponded to 3 seconds irradiation. Methotrexate polyglutamate photolytic products were measured at an excitation wavelength of 274 nm and an emission wavelength of 464 nm, unless otherwise indicated. The retention times described herein were measured from time of injection to time of detection at the post-reactor unit fluorometer. […]
Methotrexate polyglutamate photolytic products were analyzed at an excitation wavelength of 274 nm and an emission wavelength of 464 nm. […]

With `CN(Cc1cnc2nc(N)nc(N)c2n1)c1ccc(C(=O)N[C@@H](CCC(=O)O)C(=O)O)cc1` [MTXPG1, 4-amino-10-methylpteroylglutamic acid], the “concentration in red blood cell sample” value amounted to 27 nM.
